Experimental data as given in patent US9695155B2, “Herbicidal substituted pyrimidinyloxy benzene compounds” (E. I. DU PONT DE NEMOURS AND COMPANY, priority 2013, dated 2017).

Legend:
johnsongrass = test: Test C postemergence; assay type: in vivo, Sorghum halepense
Outline: (§1)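 Injury was assessed visually against controls 13 to 15 days after application, with 0 meaning no effect and 100 full control; missing entries are shown as a dash. Preemergence sprays hit seeded loam–sand soil, postemergence sprays hit 1- to 4-leaf plants.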

pigweed = test: Test C postemergence; assay type: in vivo, Amaranthus retroflexus
Outline: as §1

velvetleaf [1] = test: Test C postemergence; assay type: in vivo, Abutilon theophrasti
Outline: as §1

wheat, winter = test: Test C postemergence; assay type: in vivo, Triticum aestivum
Outline: as §1

oilseed rape = test: Test C postemergence; assay type: in vivo, Brassica napus
Outline: as §1

morningglory [2] = test: Test A preemergence; assay type: in vivo, Ipomoea spp.
Outline: (§2)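 Compounds in non-phytotoxic solvent with surfactant applied as soil spray preemergence, or postemergence to plants 2-10 cm at one- to two-leaf stage, in loam/sand. After approximately 10 days in greenhouse, injury rated visually versus untreated controls, 0 (no effect) to 100 (complete control).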

giant foxtail = test: Test A preemergence; assay type: in vivo, Setaria faberii
Outline: as §2

velvetleaf [3] = test: Test A preemergence; assay type: in vivo, Abutilon theophrasti
Outline: as §2

morningglory [4] = test: Test A postemergence; assay type: in vivo, Ipomoea spp.; conditions: Ipomoea, post-emergence, 240 h, read-out: Plant response rating, Morningglory
Outline: as §2

wheat = test: Test A preemergence; assay type: in vivo, Triticum aestivum
Outline: as §2

galium = test: Test C postemergence; assay type: in vivo, Galium aparine; conditions: Galium, post-emergence
Outline: as §1

kochia = test: Test C postemergence; assay type: in vivo, Kochia scoparia; conditions: Bassia scoparia, post-emergence
Outline: as §1

blackgrass = test: Test C postemergence; assay type: in vivo, Alopecurus myosuroides; conditions: Alopecurus myosuroides, post-emergence
Outline: as §1

corn = test: Test A postemergence; assay type: in vivo, Zea mays; conditions: Zea mays, post-emergence, 240 h
Outline: as §2

ragweed = test: Test C postemergence; assay type: in vivo, Ambrosia elatior
Outline: as §1

velvetleaf [5] = test: Test A postemergence; assay type: in vivo, Abutilon theophrasti; conditions: Abutilon theophrasti, post-emergence, 240 h, read-out: Plant response rating, Velvetleaf
Outline: as §2

soybean = test: Test C postemergence; assay type: in vivo, Glycine max
Outline: as §1

waterhemp = test: Test C postemergence; assay type: in vivo, Amaranthus rudis
Outline: as §1

[6] = 31 g ai/ha, postemergence, visual rating, scale 0 to 100 (0 no effect, 100 complete control), 13 to 15 days
[7] = 125 g ai/ha, 0 to 100 scale, 0 no effect, 100 complete control
[8] = 500 g ai/ha, 0 to 100 scale where 0 is no effect and 100 is complete control

## N#Cc1cccc(Oc2ncc(Cl)cn2)c1-n1cc(OCC(F)(F)F)cn1 [Compound 274, 3-[(5-chloro-2-pyrimidinyl)oxy]-2-[4-(2,2,2-trifluoroethoxy)-1H-pyrazol-1-yl]benzonitrile]
johnsongrass; [6]
  Johnsongrass plant response rating: 5
johnsongrass; Sorghum halepense, post-emergence, 16 g ai/ha, postemergence, 0 is no effect, 100 is complete control, read-out: Plant response rating (0 to 100), Johnsongrass
  pest or weed control at 16 g/ha: 5%
johnsongrass; Sorghum halepense, post-emergence, 125 g ai/ha, postemergence, visual rating, scale 0 to 100 (0 no effect, 100 complete control), read-out: Plant response rating, Johnsongrass
  pest or weed control at 125 g/ha: 10%
johnsongrass; Sorghum halepense, post-emergence, Postemergence, 62 g ai/ha, scale 0 to 100 (0 no effect, 100 complete control), 13 to 15 days, read-out: Plant response rating, Johnsongrass
  pest or weed control at 62 g/ha: 5%
pigweed; [6]
  Pigweed plant response rating: 85
pigweed; Amaranthus retroflexus, post-emergence, 16 g ai/ha, postemergence, 0 is no effect, 100 is complete control, read-out: Plant response rating (0 to 100), Pigweed
  pest or weed control at 16 g/ha: 95%
pigweed; Amaranthus retroflexus, post-emergence, 125 g ai/ha, postemergence, visual rating, scale 0 to 100 (0 no effect, 100 complete control), read-out: Plant response rating, Pigweed
  pest or weed control at 125 g/ha: 98%
pigweed; Amaranthus retroflexus, post-emergence, Postemergence, 62 g ai/ha, scale 0 to 100 (0 no effect, 100 complete control), 13 to 15 days, read-out: Plant response rating, Pigweed
  pest or weed control at 62 g/ha: 90%
Velvetleaf [1]; [6]
  Velvetleaf plant response rating: 50
Velvetleaf [1]; Abutilon theophrasti, post-emergence, 16 g ai/ha, postemergence, 0 is no effect, 100 is complete control, read-out: Plant response rating (0 to 100), Velvetleaf
  pest or weed control at 16 g/ha: 30%
Velvetleaf [1]; Abutilon theophrasti, post-emergence, 125 g ai/ha, postemergence, visual rating, scale 0 to 100 (0 no effect, 100 complete control), read-out: Plant response rating, Velvetleaf
  pest or weed control at 125 g/ha: 75%
Velvetleaf [1]; Abutilon theophrasti, post-emergence, Postemergence, 62 g ai/ha, scale 0 to 100 (0 no effect, 100 complete control), 13 to 15 days, read-out: Plant response rating, Velvetleaf
  pest or weed control at 62 g/ha: 65%
wheat, winter; [6]
  Wheat plant response rating: 5
wheat, winter; Triticum aestivum, post-emergence, 16 g ai/ha, postemergence, 0 is no effect, 100 is complete control, read-out: Plant response rating (0 to 100), Wheat
  plant injury at 16 g/ha: 5%
wheat, winter; Triticum aestivum, post-emergence, 125 g ai/ha, postemergence, visual rating, scale 0 to 100 (0 no effect, 100 complete control), read-out: Plant response rating, Wheat
  plant injury at 125 g/ha: 15%
wheat, winter; Triticum aestivum, post-emergence, Postemergence, 62 g ai/ha, scale 0 to 100 (0 no effect, 100 complete control), 13 to 15 days, read-out: Plant response rating, Wheat
  plant injury at 62 g/ha: 5%
Oilseed rape; [6]
  Oilseed Rape plant response rating: 80
Oilseed rape; Brassica napus, post-emergence, 16 g ai/ha, postemergence, 0 is no effect, 100 is complete control, read-out: Plant response rating (0 to 100), Oilseed Rape
  plant injury at 16 g/ha: 60%
Oilseed rape; Brassica napus, post-emergence, 125 g ai/ha, postemergence, visual rating, scale 0 to 100 (0 no effect, 100 complete control), read-out: Plant response rating, Oilseed Rape
  plant injury at 125 g/ha: 90%
Oilseed rape; Brassica napus, post-emergence, Postemergence, 62 g ai/ha, scale 0 to 100 (0 no effect, 100 complete control), 13 to 15 days, read-out: Plant response rating, Oilseed Rape
  plant injury at 62 g/ha: 85%
Morningglory [2]; 125 g ai/ha
  Morningglory plant response rating (0 to 100 scale): 100
Morningglory [2]; Ipomoea, pre-emergence, 240 h, 500 g ai/ha, 0 to 100 scale where 0 is no effect and 100 is complete control, read-out: Morningglory plant response rating
  pest or weed control at 500 g/ha: 100%
Giant foxtail; 125 g ai/ha
  Foxtail, Giant plant response rating (0 to 100 scale): 100
Giant foxtail; Setaria faberi, pre-emergence, 240 h, 500 g ai/ha, 0 to 100 scale where 0 is no effect and 100 is complete control, read-out: Foxtail, Giant plant response rating
  pest or weed control at 500 g/ha: 100%
Velvetleaf [3]; 125 g ai/ha
  Velvetleaf plant response rating (0 to 100 scale): 100
Velvetleaf [3]; Abutilon theophrasti, pre-emergence, 240 h, 500 g ai/ha, 0 to 100 scale where 0 is no effect and 100 is complete control, read-out: Velvetleaf plant response rating
  pest or weed control at 500 g/ha: 100%
Morningglory [4]; [7]
  pest or weed control at 125 g/ha: 90%
Morningglory [4]; [8]
  pest or weed control at 500 g/ha: 100%
wheat; 125 g ai/ha
  Wheat plant response rating (0 to 100 scale): 40
wheat; Triticum aestivum, pre-emergence, 240 h, 500 g ai/ha, 0 to 100 scale where 0 is no effect and 100 is complete control, read-out: Wheat plant response rating
  plant injury at 500 g/ha: 80%
galium; 16 g ai/ha, postemergence, 0 is no effect, 100 is complete control, read-out: Plant response rating (0 to 100), Galium
  pest or weed control at 16 g/ha: 70%
galium; 31 g ai/ha, postemergence, visual rating, scale 0 to 100 (0 no effect, 100 complete control), 13 to 15 days, read-out: Galium plant response rating
  pest or weed control at 31 g/ha: 80%
galium; 125 g ai/ha, postemergence, visual rating, scale 0 to 100 (0 no effect, 100 complete control), read-out: Plant response rating, Galium
  pest or weed control at 125 g/ha: 98%
galium; Postemergence, 62 g ai/ha, scale 0 to 100 (0 no effect, 100 complete control), 13 to 15 days, read-out: Plant response rating, Galium
  pest or weed control at 62 g/ha: 90%
kochia; 16 g ai/ha, postemergence, 0 is no effect, 100 is complete control, read-out: Plant response rating (0 to 100), Kochia
  pest or weed control at 16 g/ha: 85%
kochia; 31 g ai/ha, postemergence, visual rating, scale 0 to 100 (0 no effect, 100 complete control), 13 to 15 days, read-out: Kochia plant response rating
  pest or weed control at 31 g/ha: 90%
kochia; 125 g ai/ha, postemergence, visual rating, scale 0 to 100 (0 no effect, 100 complete control), read-out: Plant response rating, Kochia
  pest or weed control at 125 g/ha: 100%
kochia; Postemergence, 62 g ai/ha, scale 0 to 100 (0 no effect, 100 complete control), 13 to 15 days, read-out: Plant response rating, Kochia
  pest or weed control at 62 g/ha: 100%
blackgrass; 16 g ai/ha, postemergence, 0 is no effect, 100 is complete control, read-out: Plant response rating (0 to 100), Blackgrass
  pest or weed control at 16 g/ha: 5%
blackgrass; 31 g ai/ha, postemergence, visual rating, scale 0 to 100 (0 no effect, 100 complete control), 13 to 15 days, read-out: Blackgrass plant response rating
  pest or weed control at 31 g/ha: 5%
blackgrass; 125 g ai/ha, postemergence, visual rating, scale 0 to 100 (0 no effect, 100 complete control), read-out: Plant response rating, Blackgrass
  pest or weed control at 125 g/ha: 20%
blackgrass; Postemergence, 62 g ai/ha, scale 0 to 100 (0 no effect, 100 complete control), 13 to 15 days, read-out: Plant response rating, Blackgrass
  pest or weed control at 62 g/ha: 15%
corn; [7]
  Corn plant response rating (crop injury, 0 = no effect, 100 = complete kill) at 125 g/ha: 80%
corn; [8]
  Corn plant response rating (crop injury, 0 = no effect, 100 = complete kill) at 500 g/ha: 90%
ragweed; [6]
  Ragweed plant response rating: 60
ragweed; Ambrosia artemisiifolia, post-emergence, 16 g ai/ha, postemergence, 0 is no effect, 100 is complete control, read-out: Plant response rating (0 to 100), Ragweed
  pest or weed control at 16 g/ha: 50%
ragweed; Ambrosia artemisiifolia, post-emergence, 125 g ai/ha, postemergence, visual rating, scale 0 to 100 (0 no effect, 100 complete control), read-out: Plant response rating, Ragweed
  pest or weed control at 125 g/ha: 75%
ragweed; Ambrosia artemisiifolia, post-emergence, Postemergence, 62 g ai/ha, scale 0 to 100 (0 no effect, 100 complete control), 13 to 15 days, read-out: Plant response rating, Ragweed
  pest or weed control at 62 g/ha: 40%
Velvetleaf [5]; [7]
  pest or weed control at 125 g/ha: 100%
Velvetleaf [5]; [8]
  pest or weed control at 500 g/ha: 100%
soybean; [6]
  Soybean plant response rating: 70
soybean; Glycine max, post-emergence, 16 g ai/ha, postemergence, 0 is no effect, 100 is complete control
  Soybean plant response rating (crop injury, 0-100 scale) at 16 g/ha: 45%
soybean; Glycine max, post-emergence, 125 g ai/ha, postemergence, visual rating, scale 0 to 100 (0 no effect, 100 complete control), read-out: Plant response rating, Soybean
  Soybean plant response rating (crop injury, 0-100 scale) at 125 g/ha: 98%
soybean; Glycine max, post-emergence, Postemergence, 62 g ai/ha, scale 0 to 100 (0 no effect, 100 complete control), 13 to 15 days
  Soybean plant response rating (crop injury, 0-100 scale) at 62 g/ha: 90%
waterhemp; [6]
  Waterhemp plant response rating: 85
waterhemp; Amaranthus tuberculatus, post-emergence, 16 g ai/ha, postemergence, 0 is no effect, 100 is complete control, read-out: Plant response rating (0 to 100), Waterhemp
  pest or weed control at 16 g/ha: 70%
waterhemp; Amaranthus tuberculatus, post-emergence, 125 g ai/ha, postemergence, visual rating, scale 0 to 100 (0 no effect, 100 complete control), read-out: Plant response rating, Waterhemp
  pest or weed control at 125 g/ha: 98%
waterhemp; Amaranthus tuberculatus, post-emergence, Postemergence, 62 g ai/ha, scale 0 to 100 (0 no effect, 100 complete control), 13 to 15 days, read-out: Plant response rating, Waterhemp
  pest or weed control at 62 g/ha: 95%
